Test systems include RPMI-8226; UO-31; MDA-MB-231; CCRF-CEM; CAKI-1; MOLT-4; Malme-3M; UACC-257; BT-549; A549; HCT-15; NCI-H23; HCT-116; Hs-578T; SF-295; OVCAR-4; SK-MEL-2; SW-620; HOP-92; SF-268.
What all share (assay): NCI anticancer screen, dose series, 48 h

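Protocol summary: plate cells (96-well), add compound at 5 concentrations, incubate 48 h, interpolate endpoints linearly. At the GI50, growth is halved.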 Calls of active or inactive are those of the source. Cut-off read from the data, not from the text of the source: active = GI50 up to about 1.1 µM and inactive = higher. Bounds are passed on as bounds.

Regarding `O=C(O)CN1CCN2CCOCCN(CC1)CCN(CC(=O)O)CC2`, the GI50 in the assay with RPMI-8226, in the assay on UO-31, in the assay on MDA-MB-231, in the assay with CCRF-CEM, with CAKI-1 and in the assay on MOLT-4 was > 100 µM (inactive) throughout. Moreover, the GI50 in the assay with Malme-3M is > 100 µM (inactive); with UACC-257 it was > 100 µM (inactive); with BT-549, > 100 µM (inactive); in the assay on A549, > 100 µM (inactive); in the assay with HCT-15, above 100 µM; in the assay on NCI-H23, > 100 µM (inactive). Further, the GI50 in the assay on HCT-116, in the assay on Hs-578T, in the assay with SF-295, in the assay on OVCAR-4, in the assay on SK-MEL-2 and in the assay on SW-620 was > 100 µM (inactive) throughout. Further, the GI50 in the assay on HOP-92 and in the assay on SF-268 was > 100 µM (inactive) each time.
On to `O=C(OCc1ccccc1)c1ccc(NCc2cc(O)ccc2O)cc1`, for which the GI50 is 0.372 µM (active) in the assay with RPMI-8226; 1.32 µM (inactive) in the assay with UO-31; 1.91 µM (inactive) in the assay with MDA-MB-231; 0.308 µM (active) with CCRF-CEM; 0.575 µM (active) with CAKI-1; 0.535 µM (active) in the assay with MOLT-4. In addition, the GI50 was 1.56 µM (inactive) in the assay with Malme-3M; 1.6 µM (inactive) in the assay on UACC-257; 0.713 µM (active) in the assay on BT-549; 3.9 µM (inactive) with A549; 1.03 µM with HCT-15; 1.53 µM (inactive) in the assay with NCI-H23. The GI50 in the assay on HCT-116 was 1.51 µM (inactive); with Hs-578T, 1.51 µM (inactive); in the assay on SF-295, 6.12 µM (inactive); in the assay on OVCAR-4, 1.39 µM (inactive); with SK-MEL-2, 2.05 µM (inactive); with SW-620, 1.67 µM (inactive). Further, the results for the GI50 in the assay with HOP-92 and in the assay on SF-268 were 0.867 µM (active) and 1.36 µM (inactive), respectively.
On to `Nc1nc(N)c(N=O)c(Nc2ccc(O)cc2)n1`, for which the GI50 is > 44.4 µM (inactive) with RPMI-8226; 41.5 µM (inactive) in the assay with UO-31; > 58.3 µM (inactive) with MDA-MB-231; 14.9 µM (inactive) with CCRF-CEM; > 45.4 µM (inactive) with CAKI-1; 16.1 µM (inactive) in the assay on MOLT-4. Moreover, the GI50 in the assay on Malme-3M was 33.4 µM (inactive); in the assay with UACC-257 it was > 66.8 µM (inactive); with BT-549, > 40.4 µM (inactive); with A549, > 81.3 µM (inactive); with HCT-15 it was above 57.3 µM; in the assay with NCI-H23, 49.9 µM (inactive). For the same compound, the GI50 with HCT-116 is > 73.3 µM (inactive); in the assay on Hs-578T, 13.7 µM (inactive); with SF-295, > 44.7 µM (inactive); in the assay on OVCAR-4, > 48.8 µM (inactive); in the assay with SK-MEL-2, > 62.1 µM (inactive); in the assay with SW-620, > 60.5 µM (inactive). Besides, the GI50 in the assay on HOP-92 was 20.8 µM (inactive); with SF-268, 38 µM (inactive).
For `COc1cc2cc3c4cc(OC)c(OC)cc4cc[n+]3c(C)c2cc1OC.O=C([O-])CS(=O)(=O)O`, the GI50 was 68.4 µM (inactive) in the assay with RPMI-8226; > 100 µM (inactive) in the assay with UO-31; 70.5 µM (inactive) in the assay with MDA-MB-231; 33.2 µM (inactive) in the assay with CCRF-CEM; > 100 µM (inactive) in the assay on CAKI-1; > 100 µM (inactive) in the assay on MOLT-4. Moreover, the GI50 in the assay on Malme-3M was > 100 µM (inactive); with UACC-257, 39.7 µM (inactive); in the assay on BT-549 it was 33.5 µM (inactive); in the assay with A549, > 100 µM (inactive); in the assay on HCT-15, above 100 µM; in the assay on NCI-H23 it was 7.87 µM (inactive). For the same compound, the GI50 with HCT-116 was > 100 µM (inactive); with Hs-578T, 20.7 µM (inactive); with SF-295, > 100 µM (inactive); in the assay with OVCAR-4 it was 17.7 µM (inactive); with SK-MEL-2 it was > 100 µM (inactive); in the assay on SW-620 it was 72.8 µM (inactive). Moreover, the GI50 with HOP-92 was > 100 µM (inactive); in the assay on SF-268 it was 0.811 µM (active).
Take `CC1(C)CC[C@]2(C(=O)O)CC[C@]3(C)C(=CC[C@@H]4[C@@]5(C)CC[C@H](OC6OC(C(=O)O)C(O)C(O)C6O)C(C)(C)[C@@H]5CC[C@]43C)[C@@H]2C1` (stereo not given in full): the GI50 was 19.8 µM (inactive) in the assay with RPMI-8226; 19.5 µM (inactive) in the assay with UO-31; 18.2 µM (inactive) in the assay with MDA-MB-231; 21 µM (inactive) with CCRF-CEM; 18.7 µM (inactive) in the assay with CAKI-1; 19.8 µM (inactive) in the assay on MOLT-4. Moreover, the GI50 in the assay on Malme-3M is 18.1 µM (inactive); with UACC-257 it was 16.4 µM (inactive); in the assay with BT-549, 20.9 µM (inactive); in the assay on A549 it was 18.8 µM (inactive); in the assay with HCT-15, 16.9 µM; with NCI-H23 it was 18.9 µM (inactive). The GI50 in the assay on HCT-116 is 16.8 µM (inactive); in the assay with Hs-578T, 21.5 µM (inactive); in the assay with SF-295, 15.2 µM (inactive); in the assay on OVCAR-4 it was 16.8 µM (inactive); with SK-MEL-2, 15.4 µM (inactive); in the assay on SW-620, 17.4 µM (inactive). The GI50 is 13.1 µM (inactive) in the assay with HOP-92 and 17.3 µM (inactive) with SF-268.
Consider `O=C1C(=Cc2ccccc2[N+](=O)[O-])N=C(c2ccccc2)N1n1c(-c2ccccc2)nc2ccccc2c1=O`, for which the GI50 in the assay on RPMI-8226 is 20.5 µM (inactive); in the assay on UO-31 it was 32.4 µM (inactive); in the assay on MDA-MB-231, 27.6 µM (inactive); in the assay with CCRF-CEM, 31 µM (inactive); in the assay with CAKI-1, 39.1 µM (inactive); in the assay with MOLT-4 it was 27.8 µM (inactive). The GI50 with Malme-3M is 25.1 µM (inactive); with UACC-257 it was 24.8 µM (inactive); with BT-549 it was 41.8 µM (inactive); with A549 it was 35.7 µM (inactive); in the assay on HCT-15 it was 24.5 µM; in the assay with NCI-H23, 20.2 µM (inactive). Moreover, the GI50 with HCT-116 is 17 µM (inactive); in the assay on Hs-578T, 20.6 µM (inactive); with SF-295, 30.9 µM (inactive); in the assay on OVCAR-4 it was 33.4 µM (inactive); in the assay on SK-MEL-2 it was 29.4 µM (inactive); in the assay on SW-620, 32.7 µM (inactive). The figures for the GI50 in the assay on HOP-92 and in the assay with SF-268 were 15.2 µM (inactive) and 30.3 µM (inactive), respectively.
As for `CCOC(=O)c1cn(CC)c2ccc3c(c2c1=O)S(=O)(=O)C=C3`, the GI50 in the assay with RPMI-8226 was > 100 µM (inactive); in the assay with UO-31, 60.1 µM (inactive); in the assay with MDA-MB-231, > 100 µM (inactive); in the assay with CCRF-CEM it was > 100 µM (inactive); in the assay on CAKI-1, > 100 µM (inactive); with MOLT-4 it was > 100 µM (inactive). Besides, the GI50 with Malme-3M is > 100 µM (inactive); in the assay on UACC-257, > 100 µM (inactive); in the assay with BT-549, > 100 µM (inactive); in the assay with A549 it was > 100 µM (inactive); in the assay with HCT-15, above 100 µM; in the assay on NCI-H23, > 100 µM (inactive). The GI50 in the assay with HCT-116 was > 100 µM (inactive); in the assay with Hs-578T, 52.6 µM (inactive); in the assay with SF-295, > 100 µM (inactive); in the assay with OVCAR-4 it was > 100 µM (inactive); with SK-MEL-2, 52.5 µM (inactive); in the assay on SW-620, > 100 µM (inactive). Moreover, the GI50 with HOP-92 and in the assay with SF-268 was > 100 µM (inactive) each time.
With `N/N=C(\C(=O)Nc1ccc([N+](=O)[O-])cc1)C(C1=Nc2cc([N+](=O)[O-])ccc2NC1)[N+](=O)[O-]` (stereo not given), the GI50 in the assay on RPMI-8226 was > 100 µM (inactive); in the assay on UO-31 it was 22.1 µM (inactive); in the assay with MDA-MB-231, > 100 µM (inactive); in the assay with CCRF-CEM, 65.2 µM (inactive); in the assay with CAKI-1, 79.4 µM (inactive); with MOLT-4, > 100 µM (inactive). Besides, the GI50 with Malme-3M was > 100 µM (inactive); with UACC-257, > 100 µM (inactive); with BT-549 it was > 100 µM (inactive); in the assay on A549, 55.8 µM (inactive); in the assay with HCT-15, above 100 µM; with NCI-H23 it was > 100 µM (inactive). Also, the GI50 was 79.1 µM (inactive) in the assay with HCT-116; > 100 µM (inactive) in the assay on Hs-578T; > 100 µM (inactive) in the assay with SF-295; > 100 µM (inactive) in the assay with OVCAR-4; > 100 µM (inactive) in the assay with SK-MEL-2; 91.4 µM (inactive) in the assay with SW-620. In addition, the GI50 with HOP-92 and in the assay on SF-268 was > 100 µM (inactive) each time.
Consider `COC(=O)C1=C(O)CCCC(CCC(C)=O)=C1`, for which the GI50 in the assay on RPMI-8226 is 29.4 µM (inactive); in the assay on UO-31, 39.9 µM (inactive); in the assay with MDA-MB-231, 73.8 µM (inactive); in the assay with CCRF-CEM it was 9.71 µM (inactive); in the assay with CAKI-1 it was 47.6 µM (inactive); in the assay on MOLT-4, 36.5 µM (inactive). Also, the GI50 in the assay with Malme-3M is 41.3 µM (inactive); in the assay on UACC-257 it was 98.4 µM (inactive); in the assay with BT-549, > 100 µM (inactive); in the assay with A549 it was 95.3 µM (inactive); in the assay with HCT-15, 39.3 µM; in the assay on NCI-H23, 94.4 µM (inactive). The GI50 in the assay on HCT-116 is 17.5 µM (inactive); with Hs-578T, > 100 µM (inactive); in the assay on SF-295, > 100 µM (inactive); with OVCAR-4, 46.9 µM (inactive); in the assay on SK-MEL-2 it was > 100 µM (inactive); with SW-620, 31.6 µM (inactive). Further, the GI50 is 28.9 µM (inactive) in the assay with HOP-92 and > 100 µM (inactive) in the assay on SF-268.
As for `CCOC(=O)C1=NOC2(C=C(Br)C(=O)C(Br)=C2)C1`, the GI50 was 0.217 µM (active) with RPMI-8226; 1.09 µM (active) in the assay with UO-31; 6.78 µM (inactive) in the assay with MDA-MB-231; < 0.0132 µM (active) in the assay on CCRF-CEM; 1.3 µM (inactive) with CAKI-1; < 0.0346 µM (active) in the assay on MOLT-4. Further, the GI50 in the assay on Malme-3M was 0.625 µM (active); in the assay with UACC-257, 1.34 µM (inactive); in the assay with BT-549, 5.21 µM (inactive); with A549 it was 22 µM (inactive); in the assay with HCT-15, 2.03 µM; in the assay on NCI-H23, 3.05 µM (inactive). The GI50 in the assay with HCT-116 was 1.1 µM (active); in the assay on Hs-578T, 22.1 µM (inactive); with SF-295 it was 15.5 µM (inactive); in the assay with OVCAR-4, 1.8 µM (inactive); in the assay with SK-MEL-2, 6.84 µM (inactive); with SW-620, 0.37 µM (active). Further, the GI50 is 1.82 µM (inactive) in the assay with HOP-92 and 14.8 µM (inactive) in the assay with SF-268.

(Values after ChEMBL document CHEMBL1201862, “PubChem BioAssay data set” (2004).)
